Measured values reported in patent US6689773B2, “Uracil substituted phenyl sulfamoyl carboxamides” (BASF Aktiengesellschaft, priority 2000, dated 2004).

What was measured:
Assay in all cases: Greenhouse post-emergence herbicidal action (Example 149)
Format in all cases: in vivo
Details in all cases: 15.6 or 7.8 g/ha of a.i.
[1] = tested on: Polygonum persicaria (POLPE), redshank; ladysthumb
Description: (§1) The culture containers used were plastic flowerpots containing loamy sand with approximately 3.0% of humus as substrate. The seeds of the test plants were sown separately for each species.
(§2) For the post-emergence treatment, the test plants were grown to a plant height of from 3 to 15 cm, depending on the plant habit, and only then treated with the active ingredients which had been suspended or emulsified in water. To this end, the test plants were either sown directly and grown in the same containers, or they were first grown separately as seedlings and transplanted into the test containers a few days prior to treatment. The rate of application for the post-emergence treatment was 15.6 or 7.8 g/ha active ingredient.
(§3) Depending on the species, the plants were kept at from 10-25° C. and 20-35° C., respectively. The test period extended over 2 to 4 weeks. During this time, the plants were tended, and their response to the individual treatments was evaluated.
(§4) Evaluation was carried out using a scale of from 0 to 100. 100 means no emergence of the plants, or complete destruction of at least the aerial parts, and 0 means no damage or normal course of growth.
(§5) The plants used in the greenhouse experiments belonged to the following species: […]

[2] = tested on: Amaranthus retroflexus (AMARE), Redroot pigweed
Description: as §1, §2, §3, §4, §5

[3] = tested on: Pharbitis purpurea (PHBPU), common or tall morningglory
Description: as §1, §2, §3, §4, §5

Measured: herbicidal action

CC(C)N(C)S(=O)(=O)NC(=O)c1cc(-c2nn(C)c(OC(F)F)c2Cl)c(F)cc1Cl [Ip.86, 4-Chloro-3-[4-chloro-2-fluoro-5-(N-methyl-N-isopropyl)-sulfamoylcarboxamidophenyl]-5-difluoromethoxy-1-methyl-1H-pyrazole]
very good herbicial action: all assays above

CC(C)N(C)S(=O)(=O)NC(=O)c1cc(-n2c(=O)n(C)c(=S)n(C)c2=O)c(F)cc1Cl [Ij.86, N′-[2-Chloro-5-(3,5-dimethyl-2,6-dioxo-4-thioxo-1,3,5-triazinan-1-yl)-4-fluorobenzoyl]-N-isopropyl-N-methylsulfamide]
very good herbicial action: all assays above
